Test system: KB
Test: Cytotoxicity against human KB cells after 72 hrs by neutral red based colorimetry assay
Type: functional, cell-based

**Q.** Which IC50 does the source give for `C[C@@H]1OC(=O)[C@]23CC[C@H]4[C@@H](CC=C5C[C@H](N)CC[C@@]54C)[C@@H]2CC[C@H]13` [GITINGENSINE] here?
**A.** 21 µM

**Q.** With `CC(=O)N(C)[C@H]1C=C2C=C[C@H]3[C@@H]4CC[C@@H]5[C@H](C)OC(=O)[C@@]54CC[C@@H]3[C@@]2(C)CC1` [KIBALAURIFOLINE] as the compound, how does the IC50 read?
**A.** 21 µM

**Q.** How did the IC50 turn out when `C[C@@H]1OC(=O)[C@]23CC[C@H]4[C@@H](CC=C5C[C@@H](N)CC[C@@]54C)[C@@H]2CC[C@H]13` was run?
**A.** 21.2 µM

**Q.** With `CN[C@@H]1CC[C@@]2(C)C(=CC[C@H]3[C@@H]4CC[C@@H]5[C@H](C)OC(=O)[C@@]54CC[C@@H]32)C1` as the compound, how does the IC50 read?
**A.** 21 µM

**Q.** For `C[C@@H]1OC(=O)[C@]23CC[C@H]4[C@@H](C(=O)C=C5C=CCC[C@@]54C)[C@@H]2CC[C@H]13` [KIBALAURIFENONE], which IC50 is on record?
**A.** 21 µM

**Q.** Which IC50 does the source give for `CC(=O)N[C@@H]1CC[C@@]2(C)C(=CC[C@H]3[C@@H]4CC[C@@H]5[C@H](C)OC(=O)[C@@]54CC[C@@H]32)C1` here?
**A.** > 50 µM

**Q.** `CN[C@H]1CC[C@@]2(C)C(=C[C@@H](O)[C@H]3[C@@H]4CC[C@@H]5[C@H](C)OC(=O)[C@@]54CC[C@@H]32)C1` was tested. Which IC50 did it give?
**A.** > 50 µM

**Q.** Which IC50 does the source give for `CN[C@H]1CC[C@@]2(C)C(=CC[C@H]3[C@@H]4CC[C@@H]5[C@H](C)OC(=O)[C@@]54CC[C@@H]32)C1` [PARAVALLARINE] here?
**A.** 12.8 µM
